Legend:
MCF-7 cells [1] = assay: Cell cycle analysis (flow cytometry); format: cell-based, human; conditions: MCF-7, 5 μM, 48 h
NCI-H1975 cells = assay: MTT antiproliferative assay, NCI-H1975; format: cell-based; conditions: Homo sapiens, mean ± SD of three replicates
Description: (§1) A431 (Human epidermoid carcinoma cell line) cell, A549 (Human non-small cell lung cancer cell line) cell, MCF-7 (Human breast adenocarcinoma cell line) cell, and NCI-H1975 (Human non-small cell lung cancer cell line) cell were purchased from the Shanghai Cell Bank of the Chinese Academy of Sciences. NRK-52E (Normal rat kidney cell line) cell was donated by Guizhou Medical University.
(§2) The IC50 value was determined from a sigmoid dose − response curve using Graph-Pad Prism (GraphPad Software, San Diego, CA).

EGFR^wt-TK = biological target: T1, EGFR^wt-TK (Homo sapiens, UniProt P00533); assay: In vitro EGFR^wt-TK assay (ELISA); format: biochemical; conditions: mean ± SD of three replicates
T1 construct: The recombinant EGFR^wt-TK and Antiphosphotyrosine mouse mAb were purchased from PTM Bio; purchased PTM Bio
T1 sequence (P00533 25-1210): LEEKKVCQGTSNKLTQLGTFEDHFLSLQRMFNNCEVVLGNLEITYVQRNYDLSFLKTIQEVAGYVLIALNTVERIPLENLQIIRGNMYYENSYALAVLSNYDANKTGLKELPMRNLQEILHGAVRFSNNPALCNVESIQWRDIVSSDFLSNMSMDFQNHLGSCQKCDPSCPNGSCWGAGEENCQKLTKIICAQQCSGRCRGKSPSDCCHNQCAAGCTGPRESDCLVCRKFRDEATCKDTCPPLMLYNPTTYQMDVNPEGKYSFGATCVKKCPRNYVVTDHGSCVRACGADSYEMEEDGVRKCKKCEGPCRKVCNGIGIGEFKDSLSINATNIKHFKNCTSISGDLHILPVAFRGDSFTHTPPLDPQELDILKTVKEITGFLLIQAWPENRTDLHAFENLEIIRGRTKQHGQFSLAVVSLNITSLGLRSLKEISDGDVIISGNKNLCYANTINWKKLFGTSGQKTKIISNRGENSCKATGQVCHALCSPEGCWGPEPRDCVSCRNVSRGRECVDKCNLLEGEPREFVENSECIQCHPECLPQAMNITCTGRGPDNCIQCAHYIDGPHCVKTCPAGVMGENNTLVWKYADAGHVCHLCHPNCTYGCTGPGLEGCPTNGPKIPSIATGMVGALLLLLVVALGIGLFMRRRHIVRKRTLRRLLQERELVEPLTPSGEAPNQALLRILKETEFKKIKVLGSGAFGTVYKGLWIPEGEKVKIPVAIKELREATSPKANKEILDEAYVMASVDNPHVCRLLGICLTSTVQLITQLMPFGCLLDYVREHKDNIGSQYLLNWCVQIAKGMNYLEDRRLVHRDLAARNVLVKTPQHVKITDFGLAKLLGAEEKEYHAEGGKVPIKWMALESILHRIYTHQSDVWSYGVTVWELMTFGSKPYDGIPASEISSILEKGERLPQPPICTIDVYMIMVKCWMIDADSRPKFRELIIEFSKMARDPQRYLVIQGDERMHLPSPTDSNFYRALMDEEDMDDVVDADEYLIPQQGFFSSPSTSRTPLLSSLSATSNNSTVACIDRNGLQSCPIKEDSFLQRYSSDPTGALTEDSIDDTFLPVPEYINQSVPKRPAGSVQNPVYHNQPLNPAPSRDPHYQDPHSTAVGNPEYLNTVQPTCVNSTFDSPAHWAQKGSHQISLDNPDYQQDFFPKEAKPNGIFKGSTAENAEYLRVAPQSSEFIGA
Description: Enzymatic inhibition of synthesised compounds against wild type EGFR tyrosine kinase was determined with enzyme-linked immunosorbent assays (ELISAs) as our previous methods. The recombinant EGFR^wt-TK and Antiphosphotyrosine mouse mAb were purchased from PTM Bio. The IC50 value was determined from a sigmoid dose − response curve using Graph-Pad Prism (GraphPad Software, San Diego, CA).

A431 cells = assay: MTT antiproliferative assay, A431; format: cell-based, human; conditions: mean ± SD of three replicates
Description: as §1, §2

A549 cells = assay: MTT antiproliferative assay, A549; format: cell-based; conditions: Homo sapiens, mean ± SD of three replicates
Description: as §1, §2

MCF-7 cells [2] = assay: MTT antiproliferative assay, MCF-7; format: cell-based; conditions: Homo sapiens, MCF7, mean ± SD of three replicates
Description: as §1, §2

[3] = Stability in mice plasma (HPLC); format: in vitro ADME; conditions: 37 °C, 60 min
Description: HPLC procedures and spectra
A 2.5 mL centrifuge tube was added 300 µL plasma derived from normal […] (7 weeks, male), and 30 µL compound A or compound 4d in ethanol (50 mM). The mixture was incubated at 37 °C for 60 min, and then treated with 300 µL of CH3CN, separated in centrifugation at 30000 rpm for 10 min. The supernatant was treated with the same procedure for another time and analyzed in HPLC using C18 column (4.6 mm x 250 mm) and mobile phase of CH3CN/H2O (90 : 10) with a flow rate of 1.5 mL/min.
Fig. S1 Metabolic stability in plasma of compound A
Fig. S2 Metabolic stability in plasma of compound 4d […]

MCF-7 cells [4] = assay: Cell apoptosis analysis (Annexin V-FITC/PI flow cytometry); format: cell-based, human; conditions: MCF-7, 5 μM, 48 h

SMILES | percentage of cells in G2/M (MCF-7 cells [1]) [%] | IC50 (NCI-H1975 cells) [µM] | IC50 (EGFR^wt-TK) [µM] | IC50 (A431 cells; Homo sapiens, A-431, MTT) [µM] | melting point [°C] | IC50 (A549 cells) [µM] | IC50 (MCF-7 cells [2]) [µM] | stability in mice plasma ([3]; SD mice plasma) | IC50 (A431 cells; MTT) [µM] | purity after incubation with mice plasma ([3]; Sprague Dawley (SD) mice plasma) | ratio of apoptotic cells (late) (MCF-7 cells [4]) [%]
COc1cc2ncnc(Nc3ccc(F)c(Cl)c3)c2cc1OCCCN1CCOCC1 [Gefitinib, reference compound] | 11.58 | – | – | – | – | – | – | – | – | – | –
Cn1c(COc2ccc(/C=C/c3cccc(F)c3)cc2)nc2ccccc2c1=O [Compound 4c, (E)-2-((4-(3-Fluorostyryl)phenoxy)methyl)-3-methylquinazolin-4(3H)-one] | – | 6.44 ± 0.85 | 0.2 ± 0.041 | 6.79 ± 0.72 | 160 to 162 | 4.26 ± 0.57 | 6.04 ± 0.73 | – | – | – | –
Cn1c(COc2ccc(/C=N/c3cccc(F)c3)cc2)nc2ccccc2c1=O [A, reference compound] | – | 19.2 ± 3.02 | – | 17.7 ± 2.08 | – | 17.9 ± 2.11 | 14.1 ± 1.85 | not stable | – | – | –
Cn1c(COc2ccc(/C=C/C(=O)c3cccc(F)c3)cc2)nc2ccccc2c1=O [Compound 4a, (E)-2-((4–(3-(3-Fluorophenyl)-3-oxoprop-1-enyl)phenoxy)methyl)-3-methylquinazolin-4(3H)-one] | – | 13.7 ± 1.61 | 2.71 ± 0.22 | 9.32 ± 0.57 | 208 to 209 | 8.63 ± 0.41 | 10.6 ± 1.03 | – | – | – | –
Cn1c(COc2ccc(C(=O)Nc3cccc(F)c3)cc2)nc2ccccc2c1=O [Compound 4b, N-(3-Fluorophenyl)-4-((3-methyl-4-oxo-3,4-dihydroquinazolin-2-yl)methoxy)benzamide] | – | 12.9 ± 1.44 | 1.63 ± 0.15 | 8.72 ± 0.46 | 196 to 197 | 9.08 ± 0.69 | 9.64 ± 0.88 | – | – | – | –
Cn1c(COc2ccc(NC(=O)c3ccc(F)c(F)c3)cc2)nc2ccccc2c1=O [Compound 4e, 3,4-Difluoro-N-(4-((3-methyl-4-oxo-3,4-dihydroquinazolin-2-yl)methoxy)phenyl)benzamide] | – | 7.18 ± 0.49 | 0.061 ± 0.007 | 3.53 ± 0.34 | 248 to 249 | 2.69 ± 0.32 | 0.96 ± 0.21 | – | – | – | –
Cn1c(COc2ccc(NC(=O)Nc3cccc(F)c3)cc2)nc2ccccc2c1=O [Compound 4g, 1-(3-Fluorophenyl)-3-(4-((3-methyl-4-oxo-3,4-dihydroquinazolin-2-yl)methoxy)phenyl)urea] | – | 10.2 ± 1.03 | 0.71 ± 0.093 | 8.34 | 195 to 196 | 7.31 ± 0.59 | 10.7 ± 2.07 | – | 8.35 ± 0.46 | – | –
Cn1c(COc2ccc(NC(=O)/C=C/c3ccc(F)c(F)c3)cc2)nc2ccccc2c1=O [Compound 4f, (E)-3-(3,4-Difluorophenyl)-N-(4-((3-methyl-4-oxo-3,4-dihydroquinazolin-2-yl)methoxy)phenyl)acrylamide] | – | 9.33 ± 0.78 | 0.38 ± 0.075 | 8.76 ± 0.74 | 235 to 236 | 8.46 ± 0.67 | 2.84 ± 0.22 | – | – | – | –
Cn1c(COc2ccc(NC(=O)c3cccc(F)c3)cc2)nc2ccccc2c1=O [Compound 4d, 3-Fluoro-N-(4-((3-methyl-4-oxo-3,4-dihydroquinazolin-2-yl)methoxy)phenyl)benzamide] | 10.38 | 6.42 ± 0.47 | 0.053 ± 0.008 | 3.48 ± 0.49 | 228 to 229 | 2.55 ± 0.26 | 0.87 ± 0.14 | – | – | higher than 98% | 41.36
